Measured values published in patent US20150126530A1, “Novel Substituted Imidazopyrimidines as Gpbar1 Receptor Modulators” (Torrent Pharmaceuticals Limited., priority 2011, published 2015).

Tests used:
[1] = target: T1, human TGR5 (Homo sapiens, UniProt Q8TDU6); assay: cAMP Responsive Element (CRE)-Reporter Assay; type: cell-based; settings: luciferase activity relative to vehicle control, five hours, CHO cells transfected with human TGR5 and CRE-luciferase
T1 construct: host or cells: CHO cells (ATCC)
T1 sequence (Q8TDU6 1-330): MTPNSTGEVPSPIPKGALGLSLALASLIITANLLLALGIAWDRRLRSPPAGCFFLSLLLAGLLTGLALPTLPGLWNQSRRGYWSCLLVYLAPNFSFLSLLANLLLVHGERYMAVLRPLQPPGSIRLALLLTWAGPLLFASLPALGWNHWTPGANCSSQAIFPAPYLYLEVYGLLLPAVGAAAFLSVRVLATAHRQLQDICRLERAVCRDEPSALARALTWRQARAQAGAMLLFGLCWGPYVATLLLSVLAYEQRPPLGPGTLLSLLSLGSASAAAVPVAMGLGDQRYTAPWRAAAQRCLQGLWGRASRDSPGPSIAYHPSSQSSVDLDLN
Method: (A) cAMP Responsive Element (CRE)-Reporter Assay:
CHO cells (ATCC) were transfected with human TGR5 (oriGene) and CRE-luciferase reporter vector. Transfected cells were treated with vehicle control or test compounds (Conc 10 μM) for five hours and then lysed. Cell lysates were monitored for luciferase acivity. Increase in luciferase activity is considered as a result of TGR5 activation. Results were expressed as fold induction as compared to vehicle control.
Results are summarized in Table 2 where, + indicates 1.5-2 fold while ++, +++, ++++ indicate 2-3 fold, 3-4 fold, and >4 fold induction respectively relative to vehicle control when tested at 10 μM concentration.

[2] = target: T1, human TGR5; assay: cAMP Measurement Assay (Alphascreen); type: cell-based; settings: cAMP levels, CHO cells transfected with human TGR5, one hour
Method: (B) cAMP Measurement Assay:
CHO cells (ATCC) were transfected with human TGR5 vector (oriGene). Transfected cells were treated with vehicle control or test compounds for one hour and then lysed. Levels of cAMP were measured in cell lysates employing Alphascreen cAMP assay kit (Perkin Elmer) and results were expressed EC50 values which are summarized in Table 3.

[3] = test system: Human enteroendocrine cell-line (NCI-H716); assay: Measurement of Glucagon Like Peptide-1 (GLP-1) secretion; type: cell-based; settings: NCI-H716 cells, one hour, with respect to vehicle control
Method: (C) Measurement of Glucagon Like Peptide-1 (GLP-1):
Human enteroendocrine cell-line (NCI-H716) were incubated with vehicle or test compounds for one hour. At the end of incubation period, levels of secreted GLP-1 in culture medium were measured by GLP-1 ELISA kit (Millipore). Results are summarized as fold increase in GLP secretion with respect to vehicle control in Table 4.

[4] = test system: Diabetic Hamster; assay: Single dose efficacy on glucose tolerance (OGTT) in diabetic hamster; type: in vivo; settings: Mesocricetus auratus, read-out: Decrease in AUC of glucose % change w.r.t. vehicle control group
Method: i) Evaluation of Single Dose Efficacy of Test Compounds on Glucose Tolerance:
Thus efficacy can be assessed through the effect of test compounds on lowering of plasma glucose during OGTT through stimulating glucose stimulated insulin secretion.
The potential of test compounds in lowering of Plasma Glucose was evaluated in Oral glucose tolerance test (OGTT) in Diabetic Hamster Model, where diabetes has been induced by administration of low dose of Streptozotocin (STZ) to the High fat diet (HFD) fed glucose intolerant animals. The diabetic hamsters show impaired glucose stimulated insulin secretion and higher plasma glucose excursions than the normal animals, which remains elevated beyond 2 hrs post glucose load. Thus the animal model can be used for evaluating the potential of test compounds to lower plasma glucose through stimulating glucose stimulated insulin secretion. On the day of study post 6 hrs of fasting, test compounds or vehicle was administered orally at dose volume of 2 ml/kg to the hamsters of the respective treatment groups. Subsequent to dosing, a pre-glucose load blood sample was taken. A glucose load of 40% solution at 5 ml/Kg dose volume was administered orally. Blood samples through retroorbital plexus were taken at 15, 30 60 & 120 min. post glucose load and plasma was separated for glucose measurement. Post glucose load percentage change in plasma glucose and AUC of % change glucose by the treatment was assessed.

[5] = test system: Diabetic Hamster; assay: Efficacy study on repeated dosing in diabetic hamster; type: in vivo; settings: for HOMA-IR: from fasting glucose and insulin
Method: (§1) ii) Evaluation of Efficacy of Test Compounds on Repeated Dosing in Diabetic Hamster and DIO Mice. […]
a) Efficacy Study in Diabetic Hamster
Diabetic hamsters were randomized to two treatment groups viz. vehicle treated and test compound treated group. Then the animals were treated with compound 7 of present invention or vehicle for 2 weeks to assess the efficacy potential of the compound. Effect of treatment on glucose excursion and insulin secretion during OGTT, change in body weight & fasting and random plasma triglycerides (TG) was evaluated during the treatment period. The effect of repeated administration of compound on energy expenditure was evaluated through monitoring oxygen consumption (VO2) over 21 hrs period by indirect calorimetry (Oxymax System, Columbus Instruments). HOMA-IR an index of insulin resistance was estimated using fasting glucose and insulin levels estimated during OGTT.
Similarly, the study was conducted using compound no 50 of the present invention for the duration of four week period in Diabetic hamsters.

[6] = test system: DIO mice; assay: Efficacy study on repeated dosing in DIO mice; type: in vivo; settings: od; for % Change in body wt from basal: repeated administration
Method: as §1
b) Efficacy Study in DIO Mice
Male C57B1/6J mice were made insulin resistant by feeding on High fat diet (45.5% Kcal from Fat, Research Diet) from the age of 6-8 week onwards. After being on High fat diet for 6-8 weeks the animals with similar body weights & fasting plasma glucose were further randomized into treatment groups. Then the animals were treated with compounds 7 to assess the efficacy potential during treatment duration. Effect of treatment on glucose excursion and insulin secretion during OGTT, Fasting Plasma Glucose & Insulin, lipid profile and body weight were evaluated. The compound for enhancing energy expenditure was evaluated by monitoring oxygen consumption (VO2) and carbon dioxide release (VCO2) over 24 hrs period by indirect calorimetry (Oxymax System, Columbus Instruments).
Similarly, the study was conducted in DIO mice with compound no 50 of the present invention.

[7] = 6 mg/kg, i.p. OD, four week, listed as compound no. 50, 6 mg/kg
[8] = compound no. 50 repeated dosing, four week
[9] = 9 mg/kg, listed as compound no. 50, 9 mg/kg
[10] = 20 mg/kg, po, bid, 2 weeks, listed as compound no. 7, 20 mg/kg
[11] = compound no. 7 repeated dosing, 2 weeks
[12] = 1.5 mg/kg, listed as compound no. 7, 1.5 mg/kg

For `CN(C(=O)c1c(Oc2ccc(F)cc2)nc2ncccn12)c1ccc(Cl)cc1` [Compound no. 50, N-(4-chlorophenyl)-2-(4-fluorophenoxy)-N-methylimidazo[1,2-a]pyrimidine-3-carboxamide], the fold induction at 10 µM [1] was greater than 4, the EC50 [2] was 354 nM and the “Fold increase in GLP Release” value [3] was 1.74 fold. The inhibition in vivo at 40 mg/kg ([4]; single oral dose 40 mg/kg) was 10%, the “% Change in body wt from basal” value ([5]; 6 mg/kg, i.p. OD, four week) was −1.56% and the “AUC_glucose % change during OGTT” value ([5]; 6 mg/kg, i.p. OD, four week) was 6225.7. The “Fasting plasma TG” value ([5]; 6 mg/kg, i.p. OD, four week) was 97.8 mg/dL, the Oxygen consumption ([5]; 6 mg/kg, i.p. OD, four week) was 25.0092 mL/min/kg and the “% Change in body wt from basal” value [5, 7] was “reduced body weight”. For the same compound, the “AUC_glucose % change during OGTT” value [5, 7] was “reduced glucose excursion”, the “Fasting plasma TG” value [5, 7] was “decreased plasma TG levels” and the Oxygen consumption [5, 7] was “increased energy expenditure”. For the same compound, the “decrease in LDL” value [5, 8] was 16%, the “decrease in non HDL” value [5, 8] was 24% and the “improvement in HDL:LDL ratio” value [5, 8] was 16%. For the same compound, the “AUC_Insulin % change during OGTT” value ([6]; 9 mg/kg) was 12938.8, the “AUC_glucose % change during OGTT” value ([6]; 9 mg/kg) was 7763.5 and the HOMA-IR ([6]; 9 mg/kg) was 1.96. For the same compound, the Oxygen consumption ([6]; 9 mg/kg) was 46.125 mL/min/kg, the “AUC_Insulin % change during OGTT” value [6, 9] was “improved insulin secretion” and the “AUC_glucose % change during OGTT” value [6, 9] was “reduced glucose excursion”. For the same compound, the HOMA-IR [6, 9] was “decrease in HOMA-IR”, the Oxygen consumption [6, 9] was “increased energy expenditure” and the “% Change in body wt from basal” value ([6]; 9 mg/kg) was −3.29%. The “% Change in body wt from basal” value [6, 9] was “reduced body weight”.
In the case of `CN(C(=O)c1c(-c2ccc(F)cc2)nc2ncccn12)c1ccc(Cl)cc1` [Compound no. 7, N-(4-chlorophenyl)-2-(4-fluorophenyl)-N-methylimidazo[1,2-a]pyrimidine-3-carboxamide], the fold induction at 10 µM [1] is reported as greater than 4, the EC50 [2] is reported as 90 nM and the “Fold increase in GLP Release” value [3] is reported as 3.72 fold. The inhibition in vivo at 38 mg/kg ([4]; single oral dose 38 mg/kg) was 39%, the “% Change in body wt fro basal” value ([5]; 20 mg/kg, po, bid, 2 weeks) was −5.2 ± 1.6% and the “AUC_Insulin % change during OGTT” value ([5]; 20 mg/kg, po, bid, 2 weeks) was 2280.6 ± 428.8. For the same compound, the “AUC_glucose % change during OGTT” value ([5]; 20 mg/kg, po, bid, 2 weeks) was 12714.43 ± 912, the “Fasting plasma TG” value ([5]; 20 mg/kg, po, bid, 2 weeks) was 188.35 ± 3.7 mg/dL and the “Random plasma T” value ([5]; 20 mg/kg, po, bid, 2 weeks) was 344.38 ± 90.3 mg/dL. For the same compound, the HOMA-IR ([5]; 20 mg/kg, po, bid, 2 weeks) was 15.6 ± 2.1, the HOMA-IR [5, 10] was “decrease in HOMA-IR” and the Oxygen consumption ([5]; 20 mg/kg, po, bid, 2 weeks, indirect calorimetry over 21 hrs) was 22.551 ± 0.638 mL/min/kg. The Oxygen consumption ([5]; 20 mg/kg, po, bid, 2 weeks, indirect calorimetry over 21 hrs, listed as compound no. 7, 20 mg/kg) was “increased energy expenditure”, the “% Change in body wt fro basal” value [5, 10] was “reduced body weight” and the “AUC_Insulin % change during OGTT” value [5, 10] was “improved insulin secretion”. The “AUC_glucose % change during OGTT” value [5, 10] was “reduced glucose excursion”, the “Fasting plasma TG” value [5, 10] was “decreased plasma TG levels” and the “decrease in LDL” value [5, 11] was 14%. For the same compound, the “decrease in non HDL” value [5, 11] was 24%, the “improvement in HDL:LDL ratio” value [5, 11] was 24% and the “increase in HDL” value [5, 11] was 7%. For the same compound, the “AUC_Insulin % change during OGTT” value ([6]; 1.5 mg/kg) was 5431.0 ± 920.9, the “AUC_glucose % change during OGTT” value ([6]; 1.5 mg/kg) was 4526.7 ± 876.8 and the “Fasting plasma TG” value ([6]; 1.5 mg/kg) was 40.4 ± 2.3 mg/dL. For the same compound, the HOMA-IR ([6]; 1.5 mg/kg) was 4.7 ± 1.68, the Oxygen consumption ([6]; 1.5 mg/kg, indirect calorimetry over 24 hrs) was 51.938 ± 1.768 mL/min/kg and the Oxygen consumption ([6]; 1.5 mg/kg, indirect calorimetry over 24 hrs, listed as compound no. 7, 1.5 mg/kg) was “increased energy expenditure”. The “AUC_Insulin % change during OGTT” value [6, 12] was “improved insulin secretion”, the “AUC_glucose % change during OGTT” value [6, 12] was “reduced glucose excursion” and the “Fasting plasma TG” value [6, 12] was “decreased plasma TG levels”. For the same compound, the HOMA-IR [6, 12] was “decrease in HOMA-IR”, the “% Change in body wt from basal” value ([6]; 1.5 mg/kg) was −3.19 ± 1.32% and the “% Change in body wt from basal” value [6, 12] was “reduced body weight”.
